Assay results: patent US10981916B2, “Substituted pyrazolopyrimidinone compounds as PDE2 inhibitors” (DART NEUROSCIENCE, LLC, priority 2016, dated 2021)

Molecular target: PDE2A (Homo sapiens (Human), UniProt O00408)
Experiment: IMAP TR-FRET PDE2A enzymatic assay
Type: biochemical
Conditions: FLAG-tagged PDE2A1 (amino acids 2-941), 200 nM FAM-cAMP substrate, 11-point half-log dose-response; for IC50: read-out: PDE2 (pIC50) (converted)
Source text: An IMAP TR-FRET-based phosphodiesterase assay was developed using the PDE2A isoform. IMAP technology is based on high-affinity binding of phosphate by immobilized metal (MIII) coordination complexes on nanoparticles. The IMAP “binding reagent” recognizes phosphate groups on AMP or GMP generated from cAMP or cGMP in a PDE reaction. Cyclic nucleotides that carry a phosphodiester bond and not a free phosphate are not recognized by the binding reagent. The time resolved fluorescence resonance energy transfer (TR-FRET) is afforded by a Terbium (Tb)-Donor pre-bound to the nanoparticles. FRET occurs when the fluorescent-labeled AMP or GMP product of a PDE reaction binds and comes into close proximity to the Tb-Donor complex. Due to the long lifetime of Tb fluorescence, detection can be run in time-resolved mode to reduce or eliminate interference from auto-fluorescent compounds.
The IMAP TR-FRET PDE2A assay was performed in 1536-well white plates. A total of 250 pg per well of FLAG-tagged PDE2A 1 (amino acids 2-941) was dispensed in 2.5 μL IMAP assay buffer consisting of 10 mM Tris pH 7.2, 10 mM MgCl2, 1 mM DTT, and 0.1% fatty acid free BSA. 30 nL of compound was then added from 1 mM stocks in DMSO using a Kalypsys Pintool. Plates were incubated for 5 min at room temperature before dispensing 1.5 μL of 533 nM FAM-cAMP substrate for a final concentration of 200 nM. Following a brief centrifugation, plates were incubated for 30 min at room temperature. The assay was terminated by adding 5 μL IMAP binding reagent Tb complex to each well which was prepared according to manufacturer's recommendations (Molecular Devices). Plates were incubated an additional 120 minutes at room temperature and read on a Viewlux plate reader. All compounds were solvated at a concentration of 10 mM in DMSO and tested in 11-point half-log dose-response. Curve fitting and IC50 values were determined using a standard four parameter fit.

PDE2A, sequence (O00408 2-941): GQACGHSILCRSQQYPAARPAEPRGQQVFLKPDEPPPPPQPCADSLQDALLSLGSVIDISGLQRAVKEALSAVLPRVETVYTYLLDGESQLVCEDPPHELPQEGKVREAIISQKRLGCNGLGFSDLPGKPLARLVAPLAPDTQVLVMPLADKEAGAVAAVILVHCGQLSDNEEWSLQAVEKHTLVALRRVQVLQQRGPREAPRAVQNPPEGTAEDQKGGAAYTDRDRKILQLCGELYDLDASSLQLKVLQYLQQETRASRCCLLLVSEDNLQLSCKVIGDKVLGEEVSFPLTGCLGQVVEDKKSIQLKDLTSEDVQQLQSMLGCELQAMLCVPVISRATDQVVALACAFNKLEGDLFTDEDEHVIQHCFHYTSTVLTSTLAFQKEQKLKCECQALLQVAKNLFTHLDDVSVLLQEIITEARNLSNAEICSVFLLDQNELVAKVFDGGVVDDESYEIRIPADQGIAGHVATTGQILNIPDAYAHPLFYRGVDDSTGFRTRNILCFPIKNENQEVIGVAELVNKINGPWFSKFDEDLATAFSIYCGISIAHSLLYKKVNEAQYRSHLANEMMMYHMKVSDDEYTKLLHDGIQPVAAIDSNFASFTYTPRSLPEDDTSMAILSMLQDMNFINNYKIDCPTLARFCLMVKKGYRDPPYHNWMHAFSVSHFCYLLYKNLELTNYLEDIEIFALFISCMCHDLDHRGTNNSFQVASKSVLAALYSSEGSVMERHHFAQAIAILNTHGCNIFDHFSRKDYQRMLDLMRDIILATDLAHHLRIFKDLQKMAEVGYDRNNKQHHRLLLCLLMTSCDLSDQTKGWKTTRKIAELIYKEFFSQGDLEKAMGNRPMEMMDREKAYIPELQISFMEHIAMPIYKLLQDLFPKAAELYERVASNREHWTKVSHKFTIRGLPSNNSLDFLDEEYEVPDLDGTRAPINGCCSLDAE

| Structure (SMILES) | IC50 | PDE2 (pIC50) |
| --- | --- | --- |
| CC(c1ccc(C(F)(F)F)nc1)n1nc(C2CC2)c2c(=O)[nH]c(Cc3ccc(F)cn3)nc21 (stereo not shown) [Example 7, 3-cyclopropyl-6-[(5-fluoropyridin-2-yl)methyl]-1-{1-[6-(trifluoromethyl)pyridin-3-yl]ethyl}-1H,4H,5H-pyrazolo[3,4-d]pyrimidin-4-one] | 0.1 to 1 µM |  |
| CC[C@@H](c1ccc(C(F)(F)F)nc1)n1nc(C2CC2)c2c(=O)[nH]c(Cc3ccc(F)cn3)nc21 [Example 21, 3-cyclopropyl-6-[(5-fluoropyridin-2-yl)methyl]-1-[(1S)-1-[6-(trifluoromethyl)pyridin-3-yl]propyl]-1H,4H,5H-pyrazolo[3,4-d]pyrimidin-4-one] |  | >7 |
| C[C@H](c1ccc(C(F)(F)F)nc1)n1nc(C2CC2)c2c(=O)[nH]c(Cc3ccc(F)cn3)nc21 [Example 16, 3-cyclopropyl-6-[(5-fluoropyridin-2-yl)methyl]-1-[(1R)-1-[6-(trifluoromethyl)pyridin-3-yl]ethyl]-1H,4H,5H-pyrazolo[3,4-d]pyrimidin-4-one] |  | <5 |
| Cc1nc2c(c(C3CC3)nn2[C@H](C)c2ccc(C(F)(F)F)cn2)c(=O)[nH]1 [Example 26, 3-cyclopropyl-6-methyl-1-[(1R)-1-[5-(trifluoromethyl)pyridin-2-yl]ethyl]-1H,4H,5H-pyrazolo[3,4-d]pyrimidin-4-one] | 1 to 10 µM |  |
| CCC(c1ccc(C(F)(F)F)cn1)n1nc(C2CC2)c2c(=O)[nH]c(C)nc21 (stereo not shown) [Example 9, 3-cyclopropyl-6-methyl-1-{1-[5-(trifluoromethyl)pyridin-2-yl]propyl}-1H,4H,5H-pyrazolo[3,4-d]pyrimidin-4-one] |  | >7 |
| CC[C@H](c1ccc(C(F)(F)F)nc1)n1nc(C2CC2)c2c(=O)[nH]c(Cc3ccc(OC)cn3)nc21 [Example 18, 3-cyclopropyl-6-[(5-methoxypyridin-2-yl)methyl]-1-[(1R)-1-[6-(trifluoromethyl)pyridin-3-yl]propyl]-1H,4H,5H-pyrazolo[3,4-d]pyrimidin-4-one] |  | <5 |
| CC[C@@H](c1ccc(C(F)(F)F)nc1)n1nc(C2CC2)c2c(=O)[nH]c(Cc3ccc(OC)cn3)nc21 [Example 17, 3-cyclopropyl-6-[(5-methoxypyridin-2-yl)methyl]-1-[(1S)-1-[6-(trifluoromethyl)pyridin-3-yl]propyl]-1H,4H,5H-pyrazolo[3,4-d]pyrimidin-4-one] |  | >7 |
| Cc1nc2c(c(C3CC3)nn2[C@@H](C)c2ccc(C(F)(F)F)cn2)c(=O)[nH]1 [Example 25, 3-cyclopropyl-6-methyl-1-[(1S)-1-[5-(trifluoromethyl)pyridin-2-yl]ethyl]-1H,4H,5H-pyrazolo[3,4-d]pyrimidin-4-one] |  | >7 |
| C[C@@H](c1ccc(C(F)(F)F)nc1)n1nc(C2CC2)c2c(=O)[nH]c(Cc3ccc(F)cn3)nc21 [Example 15, 3-cyclopropyl-6-[(5-fluoropyridin-2-yl)methyl]-1-[(1S)-1-[6-(trifluoromethyl)pyridin-3-yl]ethyl]-1H,4H,5H-pyrazolo[3,4-d]pyrimidin-4-one] | 0.1 to 1 µM |  |
| Cc1nc2c(c(C3CC3)nn2C(C)c2ccc(C(F)(F)F)cn2)c(=O)[nH]1 (stereo not shown) [Example 11, 3-cyclopropyl-6-methyl-1-{1-[5-(trifluoromethyl)pyridin-2-yl]ethyl}-1H,4H,5H-pyrazolo[3,4-d]pyrimidin-4-one] |  | >7 |
| CC[C@@H](c1ccc(C(F)(F)F)nc1)n1nc(C2CC2)c2c(=O)[nH]c(C)nc21 [Example 19, 3-cyclopropyl-6-methyl-1-[(1S)-1-[6-(trifluoromethyl)pyridin-3-yl]propyl]-1H,4H,5H-pyrazolo[3,4-d]pyrimidin-4-one] |  | >7 |
| COc1ccc(Cc2nc3c(c(C4CC4)nn3[C@@H](C)c3ccc(C(F)(F)F)nc3)c(=O)[nH]2)nc1 [Example 5, 3-cyclopropyl-6-[(5-methoxypyridin-2-yl)methyl]-1-[(1S)-1-[6-(trifluoromethyl)pyridin-3-yl]ethyl]-1H,4H,5H-pyrazolo[3,4-d]pyrimidin-4-one] |  | >7 |
| COc1ccc(Cc2nc3c(c(C4CC4)nn3C(C)c3ccc(C(F)(F)F)nc3)c(=O)[nH]2)nc1 (stereo not shown) [Example 2, 3-cyclopropyl-6-[(5-methoxypyridin-2-yl)methyl]-1-{1-[6-(trifluoromethyl)pyridin-3-yl]ethyl}-1H,4H,5H-pyrazolo[3,4-d]pyrimidin-4-one] |  | >7 |
| CCC(c1ccc(C(F)(F)F)nc1)n1nc(C2CC2)c2c(=O)[nH]c(C)nc21 (stereo not shown) [Example 3, 3-cyclopropyl-6-methyl-1-{1-[6-(trifluoromethyl)pyridin-3-yl]propyl}-1H,4H,5H-pyrazolo[3,4-d]pyrimidin-4-one] | 0.1 to 1 µM |  |
| CCC(c1ccc(C(F)(F)F)nc1)n1nc(C2CCC2)c2c(=O)[nH]c(C)nc21 (stereo not shown) [Example 4, 3-cyclobutyl-6-methyl-1-{1-[6-(trifluoromethyl)pyridin-3-yl]propyl}-1H,4H,5H-pyrazolo[3,4-d]pyrimidin-4-one] | > 10 µM |  |
| CCC(c1ccc(C(F)(F)F)nc1)n1nc(C2CC2)c2c(=O)[nH]c(Cc3ccc(F)cn3)nc21 (stereo not shown) [Example 8, 3-cyclopropyl-6-[(5-fluoropyridin-2-yl)methyl]-1-{1-[6-(trifluoromethyl)pyridin-3-yl]propyl}-1H,4H,5H-pyrazolo[3,4-d]pyrimidin-4-one] |  | >7 |
| COc1ccc(Cc2nc3c(c(C4CC4)nn3[C@H](C)c3ccc(C(F)(F)F)nc3)c(=O)[nH]2)nc1 [Example 6, 3-cyclopropyl-6-[(5-methoxypyridin-2-yl)methyl]-1-[(1R)-1-[6-(trifluoromethyl)pyridin-3-yl]ethyl]-1H,4H,5H-pyrazolo[3,4-d]pyrimidin-4-one] | 0.1 to 1 µM |  |
| Cc1nc2c(c(C3CC3)nn2[C@H](C)c2ccc(C(F)(F)F)nc2)c(=O)[nH]1 [Example 14, 3-cyclopropyl-6-methyl-1-[(1R)-1-[6-(trifluoromethyl)pyridin-3-yl]ethyl]-1H,4H,5H-pyrazolo[3,4-d]pyrimidin-4-one] | 1 to 10 µM |  |
| CC[C@H](c1ccc(C(F)(F)F)cn1)n1nc(C2CC2)c2c(=O)[nH]c(C)nc21 [Example 24, 3-cyclopropyl-6-methyl-1-[(1R)-1-[5-(trifluoromethyl)pyridin-2-yl]propyl]-1H,4H,5H-pyrazolo[3,4-d]pyrimidin-4-one] | 1 to 10 µM |  |
| CC[C@@H](c1ccc(C(F)(F)F)cn1)n1nc(C2CC2)c2c(=O)[nH]c(C)nc21 [Example 23, 3-cyclopropyl-6-methyl-1-[(1S)-1-[5-(trifluoromethyl)pyridin-2-yl]propyl]-1H,4H,5H-pyrazolo[3,4-d]pyrimidin-4-one] |  | >7 |
| CC[C@H](c1ccc(C(F)(F)F)nc1)n1nc(C2CC2)c2c(=O)[nH]c(Cc3ccc(F)cn3)nc21 [Example 22, 3-cyclopropyl-6-[(5-fluoropyridin-2-yl)methyl]-1-[(1R)-1-[6-(trifluoromethyl)pyridin-3-yl]propyl]-1H,4H,5H-pyrazolo[3,4-d]pyrimidin-4-one] | 1 to 10 µM |  |
| Cc1nc2c(c(C3CC3)nn2C(C)c2ccc(C(F)(F)F)nc2)c(=O)[nH]1 (stereo not shown) [Example 12, 3-cyclopropyl-6-methyl-1-{1-[6-(trifluoromethyl)pyridin-3-yl]ethyl}-1H,4H,5H-pyrazolo[3,4-d]pyrimidin-4-one] |  | >7 |
| CCC(c1ccc(C(F)(F)F)nc1)n1nc(C2CC2)c2c(=O)[nH]c(Cc3ccc(OC)cn3)nc21 (stereo not shown) [Example 1, 3-cyclopropyl-6-[(5-methoxypyridin-2-yl)methyl]-1-{1-[6-(trifluoromethyl)pyridin-3-yl]propyl}-1H,4H,5H-pyrazolo[3,4-d]pyrimidin-4-one] |  | >7 |
| CC[C@H](c1ccc(C(F)(F)F)nc1)n1nc(C2CC2)c2c(=O)[nH]c(C)nc21 [Example 20, 3-cyclopropyl-6-methyl-1-[(1R)-1-[6-(trifluoromethyl)pyridin-3-yl]propyl]-1H,4H,5H-pyrazolo[3,4-d]pyrimidin-4-one] | 1 to 10 µM |  |
| Cc1nc2c(c(C3CC3)nn2C(C)c2ccc(C(F)(F)F)cc2)c(=O)[nH]1 (stereo not shown) [Example 10, 3-cyclopropyl-6-methyl-1-{1-[4-(trifluoromethyl)phenyl]ethyl}-1H,4H,5H-pyrazolo[3,4-d]pyrimidin-4-one] |  | >7 |
